This assay relates to MCH receptors. Description: MCH receptor activity class (method not given).
Setting [1] is: class by percent of control at 10^-7 M or IC50.
[2] abbreviates: activity class per percent of control at 10^-7 M or IC50.
Setting [3] is: activity class 1-3: percent of control at 10^-7 M or IC50.
Setting [4] is: class by percent of control at 10^−7 M or IC50.
Where [5] appears, read: class 1-3 by percent of control at 10^-7 M or IC50.
Setting [6] is: MCH receptor, class by percent of control at 10^-7 M or IC50.

Read-outs that look alike come from different tables or passages of the source.

As to `Cc1cc(N[C@H]2CC[C@@H](NC(=O)c3cc(C(F)(F)F)cc(C(F)(F)F)c3)CC2)nc2ccccc12` [Example 2548, N-{cis-4-[(4-methylquinolin-2-yl)amino]cyclohexyl}-3,5-bis(trifluoromethyl)benzamide], the class was determined as 1.

In the case of `Cc1ccc(C(=O)CC(SCc2ccc(Cl)cc2)C(=O)N[C@H]2CC[C@@H](Nc3cc(N(C)C)c4ccccc4n3)CC2)cc1` (relative stereo) [compound 742], the class under setting [1] is 3 (Class 3 The value of percent of control at 10^−7 M was more than 60% or the value of IC50 was more than 200 nM.).

On to `CCOc1ccc(C(=O)CC(C(=O)NC[C@H]2CC[C@@H](Nc3nc4c(c(N(C)C)n3)CCCC4)CC2)C2C(=O)N(c3ccccc3)N=C2C)cc1` (relative stereo) [compound 1080], for which the class under setting [2] is 3 (Class 3 The value of percent of control at 10^−7 M was more than 60% or the value of IC50 was more than 200 nM.).

For `COc1cc(C(=O)NC[C@H]2CC[C@@H](Nc3cc(N(C)C)c4ccccc4n3)CC2)ccc1[N+](=O)[O-]` [compound 804, N-[(cis-4-{[4-(dimethylamino)quinolin-2-yl]amino}cyclohexyl)methyl]-3-methoxy-4-nitrobenzamide], under setting [1], the class is 3 (Class 3 The value of percent of control at 10^−7 M was more than 60% or the value of IC50 was more than 200 nM.).

As for `CN(C)c1ccnc(N[C@H]2CC[C@@H](NC(=O)CCc3ccccc3)CC2)n1` [compound 345], the class under setting [1] is 3 (Class 3 The value of percent of control at 10^−7 M was more than 60% or the value of IC50 was more than 200 nM.).

As to `CN(C)c1nc(N[C@H]2CC[C@@H](NC(=O)Oc3ccc(Br)cc3)CC2)nc2c1CCCC2` [compound 1583], the class under setting [3] is given as 3 (Class 3 The value of percent of control at 10^−7 M was more than 60% or the value of IC50 was more than 200 nM.).

As to `CN(C)c1nc(N[C@H]2CC[C@@H](NC(=O)c3ccccc3CCc3ccccc3)CC2)nc2c1CCCC2` [compound 1008], the class under setting [2] is given as 3 (Class 3 The value of percent of control at 10^−7 M was more than 60% or the value of IC50 was more than 200 nM.).

As for `C[C@H](C(=O)N[C@H]1CC[C@@H](Nc2nc3c(c(N(C)C)n2)CCCC3)CC1)c1ccc(-c2ccccc2)c(F)c1` [compound 1016], the class under setting [2] was 2 (Class 2: The value of percent of control at 10^−7 M was from 40% to 60% or the value of IC′50 was from 50 nM to 200 nM.).

As for `Cc1ccc(NC(=O)NC[C@H]2CC[C@@H](Nc3nc4c(c(N(C)C)n3)CCCC4)CC2)cc1` [compound 2487], under setting [1], the class was 3 (Class 3 The value of percent of control at 10^−7 M was more than 60% or the value of IC50 was more than 200 nM.).

For `Cc1cnc(N[C@H]2CC[C@@H](C(=O)N[C@H](C)c3ccc(F)cc3)CC2)nc1N(C)C` [compound 2773, cis-4-{[4-(dimethylamino)-5-methylpyrimidin-2-yl]amino}-N-[(1R)-1-(4-fluorophenyl)ethyl]cyclohexanecarboxamide], the class under setting [4] is 1 (Class 1: The value of percent of control at 10^−7 M was less than 40% or the value of IC50 was less than 50 nM.).

For `Cc1cnc(NC[C@H]2CC[C@@H](NC(=O)c3ccc(C(F)(F)F)cc3)CC2)nc1N(C)C` [compound 2720], under setting [4], the class is reported as 3 (Class 3 The value of percent of control at 10^−7 M was more than 60% or the value of IC50 was more than 200 nM.).

For the compound `CN(C)c1nc(N[C@H]2CC[C@@H](NC(=O)NC3C[C@H]3c3ccccc3)CC2)nc2c1CCCC2` (some centres unmarked) [compound 1701], under setting [3], the class is on record as 3 (Class 3 The value of percent of control at 10^−7 M was more than 60% or the value of IC50 was more than 200 nM.).

`Cc1ccc(C(=O)N[C@H]2CC[C@@H](CNc3ncc(C)c(N(C)C)n3)CC2)cc1F` [compound 2717]: under setting [4], the class is 3 (Class 3 The value of percent of control at 10^−7 M was more than 60% or the value of IC50 was more than 200 nM.).

Take `CN(C)c1ccnc(N[C@H]2CC[C@@H](NC(=O)CSc3ccccc3)CC2)n1` [compound 281]: the class under setting [1] is 3 (Class 3 The value of percent of control at 10^−7 M was more than 60% or the value of IC50 was more than 200 nM.).

With `COc1cccc(OC)c1CN[C@H]1CC[C@@H](Nc2nccc(N(C)C)n2)CC1` [compound 1205], under setting [1], the class is reported as 3 (Class 3 The value of percent of control at 10^−7 M was more than 60% or the value of IC50 was more than 200 nM.).

Regarding `COc1cc(C(=O)NC[C@H]2CC[C@@H](Nc3nc4c(c(N(C)C)n3)CCCC4)CC2)ccc1[N+](=O)[O-]` [compound 1077], the class under setting [2] is recorded as 3 (Class 3 The value of percent of control at 10^−7 M was more than 60% or the value of IC50 was more than 200 nM.).

With `COc1ccc(CC(=O)N[C@H]2CC[C@@H](Nc3nccc(N(C)C)n3)CC2)cc1OC` [compound 341], the class under setting [1] is listed as 3 (Class 3 The value of percent of control at 10^−7 M was more than 60% or the value of IC50 was more than 200 nM.).

In the case of `CN(C)c1ccnc(N[C@H]2CC[C@@H](NC(=O)[C@H](CCCCNC(=O)c3ccccc3)NC(=O)c3ccccc3)CC2)n1` (relative stereo) [compound 843], under setting [1], the class is given as 2 (Class 2: The value of percent of control at 10^−7 M was from 40% to 60% or the value of IC′50 was from 50 nM to 200 nM.).

Take `CN(C)c1nc(N[C@H]2CC[C@@H](NC(=O)Nc3ccccc3C(F)(F)F)CC2)nc2c1CCCC2` [compound 1666]: the class under setting [3] is reported as 3 (Class 3 The value of percent of control at 10^−7 M was more than 60% or the value of IC50 was more than 200 nM.).

For `Cc1cc(C(=O)N[C@H]2CC[C@@H](Nc3cc(N(C)C)c4ccccc4n3)CC2)ccc1[N+](=O)[O-]` [compound 689, N-(cis-4-{[4-(dimethylamino)quinolin-2-yl]amino}cyclohexyl)-3-methyl-4-nitrobenzamide], the class under setting [1] is 1 (Class 1: The value of percent of control at 10^−7 M was less than 40% or the value of IC50 was less than 50 nM.).

For the compound `CCOC(=O)N[C@H]1CC[C@@H](Nc2cc(N(C)C)c3ccccc3n2)CC1` [compound 1547], the class under setting [3] was 3 (Class 3 The value of percent of control at 10^−7 M was more than 60% or the value of IC50 was more than 200 nM.).

Turning to `COc1cc(CN[C@H]2CC[C@@H](Nc3ncc(C)c(N(C)C)n3)CC2)cc(OC)c1` [compound 3000], the class under setting [4] was 2 (Class 2: The value of percent of control at 10^−7 M was from 40% to 60% or the value of IC′50 was from 50 nM to 200 nM.).

With `CN(C)c1nc(N[C@H]2CC[C@@H](NC(=O)c3ccc(F)c(F)c3)CC2)nc2c1CCCC2` [compound 469], the class under setting [5] was 1 (Class 1: The value of percent of control at 10^−7 M was less than 40% or the value of IC50 was less than 50 nM.).

As for `COC(CNC1CCC(Nc2nc3c(c(N(C)C)n2)CCCC3)CC1)c1ccccc1` (centres unmarked) [compound 1484], the class under setting [1] is listed as 3 (Class 3 The value of percent of control at 10^−7 M was more than 60% or the value of IC50 was more than 200 nM.).

Regarding `CN(C)c1cc(N[C@H]2CC[C@@H](NCc3cccc4ccccc34)CC2)nc2ccccc12` [compound 1119], the class under setting [2] was 3 (Class 3 The value of percent of control at 10^−7 M was more than 60% or the value of IC50 was more than 200 nM.).

In the case of `CN(C)c1nc(N[C@H]2CC[C@@H](NC(=O)NCc3ccc(Cl)cc3Cl)CC2)nc2c1CCCC2` [compound 1710], under setting [1], the class is recorded as 2 (Class 2: The value of percent of control at 10^−7 M was from 40% to 60% or the value of IC′50 was from 50 nM to 200 nM.).

Consider `Cc1cc(C(=O)N[C@H]2CC[C@@H](Nc3cc(N(C)C)c4ccccc4n3)CC2)ccc1Br` [compound 57, 4-bromo-N-(cis-4-{[4-(dimethylamino)quinolin-2-yl]amino}cyclohexyl)-3-methylbenzamide], for which the class under setting [6] was 1 (Class 1: The value of percent of control at 10^−7 M was less than 40% or the value of IC50 was less than 50 nM.).

With `Cc1cc(N(C)C)nc(N[C@H]2CC[C@@H](NC(=O)c3ccc(C)c(F)c3)CC2)n1` [compound 2965, N-(cis-4-{[4-(dimethylamino)-6-methylpyrimidin-2-yl]amino}cyclohexyl)-3-fluoro-4-methylbenzamide], under setting [4], the class is 1 (Class 1: The value of percent of control at 10^−7 M was less than 40% or the value of IC50 was less than 50 nM.).

With `CN(C)c1nc(N[C@H]2CC[C@@H](NC(=S)Nc3cccc(C(=O)O)c3)CC2)nc2c1CCCC2` [compound 2009], the class under setting [6] is 3 (Class 3 The value of percent of control at 10^−7 M was more than 60% or the value of IC50 was more than 200 nM.).

As to `CN(C)c1cc(N[C@H]2CC[C@@H](CNC(=O)Nc3ccccc3Cl)CC2)nc2ccccc12` [compound 2359], the class (MCH receptor activity class 1-3 (percent of control at 10^-7 M or IC50)) is 3 (Class 3 The value of percent of control at 10^−7 M was more than 60% or the value of IC50 was more than 200 nM.).

Take `CCSc1ncccc1C(=O)NC[C@H]1CC[C@@H](Nc2nccc(N(C)C)n2)CC1` [compound 381]: under setting [1], the class is 3 (Class 3 The value of percent of control at 10^−7 M was more than 60% or the value of IC50 was more than 200 nM.).

Turning to `CCOC(=O)c1[nH]c2cc(Cl)cc(Cl)c2c1CN[C@H]1CC[C@@H](Nc2nccc(N(C)C)n2)CC1` [compound 1236], under setting [1], the class was 1 (Class 1: The value of percent of control at 10^−7 M was less than 40% or the value of IC50 was less than 50 nM.).

For `CCCCCC(=O)N[C@H]1CC[C@@H](Nc2nc3c(c(N(C)C)n2)CCCC3)CC1` [compound 476], the class under setting [5] is reported as 2 (Class 2: The value of percent of control at 10^−7 M was from 40% to 60% or the value of IC′50 was from 50 nM to 200 nM.).

For the compound `Cc1cnc(N[C@H]2CC[C@@H](NC(=O)c3ccc(F)cc3)CC2)nc1N(C)C` [compound 2899, N-(cis-4-{[4-(dimethylamino)-5-methylpyrimidin-2-yl]amino}cyclohexyl)-4-fluorobenzamide], under setting [4], the class was 1 (Class 1: The value of percent of control at 10^−7 M was less than 40% or the value of IC50 was less than 50 nM.).

On to `CCOc1ccccc1C(=O)N[C@H]1CC[C@@H](Nc2nc3c(c(N(C)C)n2)CCCC3)CC1` [compound 508], for which, under setting [5], the class is 3 (Class 3 The value of percent of control at 10^−7 M was more than 60% or the value of IC50 was more than 200 nM.).

The record behind these values is patent US20050197350A1, “Novel quinoline, tetrahydroquinazoline, and pyrimidine derivatives and methods of treatment related to the use thereof” (TAISHO PHARMACEUTICAL CO., LTD., priority 2003, published 2005).
